Experiment: pKa (acid dissociation constant) determined by neutralization titration
Type: physicochemical
Conditions: acid dissociation constant at 25°C in water

- pKa: 16
Structure (SMILES): CO [Base B-2, KOMe]
